Measured values published in patent US10485235B2, “Aryloxypyrimidinyl ethers as herbicides” (FMC Corporation, priority 2015, dated 2019).

How the values were obtained:
Assay type in all cases: in vivo
[1] = tested on: ryegrass, Italian (Italian ryegrass, Lolium multiflorum); test: Test A postemergence, Italian ryegrass; settings: Lolium multiflorum, post-emergence, 240 h, postemergence, 0 to 100 scale, 0 is no effect, 100 is complete control, approximately 10 days, read-out: Plant response rating, Ryegrass, Italian; for pest or weed control at 125 g/ha: 125 g ai/ha
Summary of the method: (§1)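 Approximately 10-day greenhouse assay. Formulated chemical (non-phytotoxic solvent plus surfactant) applied preemergence to soil over seeds or postemergence to plants of 2 to 10 cm. Endpoint: visual percent control, 0–100.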

[2] = tested on: foxtail, giant (giant foxtail, Setaria faberii); test: Test A preemergence, giant foxtail; settings: Setaria faberi, pre-emergence, 240 h, Preemergence, 0 to 100 scale (0 no effect, 100 complete control), read-out: Plant response rating, Foxtail, Giant; for pest or weed control at 125 g/ha: 125 g ai/ha
Summary of the method: as §1

[3] = tested on: sedge, umbrella (small-flower umbrella sedge, Cyperus difformis); test: Test B flooded paddy test, umbrella sedge; settings: Cyperus difformis; 250 g ai/ha, Flood; visual rating after 13 to 15 days; scale 0 to 100, 0 is no effect, 100 is complete control; read-out: Plant response rating, Sedge, Umbrella
Summary of the method: (§2)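 Plants grown to the 2-leaf stage; pots flooded to 3 cm above soil and compounds applied directly into the paddy water, depth held throughout. After 13 to 15 days in the greenhouse, injury was rated visually against untreated controls on a 0–100 scale (0 no effect, 100 complete control).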

[4] = tested on: kochia (Kochia scoparia); test: Test A postemergence, kochia; settings: Bassia scoparia, post-emergence, 240 h, postemergence, 0 to 100 scale, 0 is no effect, 100 is complete control, approximately 10 days, read-out: Plant response rating, Kochia; for pest or weed control at 125 g/ha: 125 g ai/ha
Summary of the method: as §1

[5] = tested on: barnyardgrass (Echinochloa crus-galli); test: Test B flooded paddy test, barnyardgrass; settings: Echinochloa crus-galli; 250 g ai/ha, Flood; visual rating after 13 to 15 days; scale 0 to 100, 0 is no effect, 100 is complete control; read-out: Plant response rating, Barnyardgrass
Summary of the method: as §2

[6] = tested on: galium (catchweed bedstraw, Galium aparine); test: Test A postemergence, galium; settings: Galium, post-emergence, 240 h, postemergence, 0 to 100 scale, 0 is no effect, 100 is complete control, approximately 10 days, read-out: Plant response rating, Galium; for pest or weed control at 125 g/ha: 125 g ai/ha
Summary of the method: as §1

[7] = tested on: blackgrass (Alopecurus myosuroides); test: Test A postemergence, blackgrass; settings: Alopecurus myosuroides, post-emergence, 240 h, postemergence, 0 to 100 scale, 0 is no effect, 100 is complete control, approximately 10 days, read-out: Plant response rating, Blackgrass; for pest or weed control at 125 g/ha: 125 g ai/ha
Summary of the method: as §1

[8] = tested on: pigweed (Amaranthus retroflexus); test: Test A preemergence, pigweed; settings: Amaranthus retroflexus, pre-emergence, 240 h, Preemergence, 0 to 100 scale (0 no effect, 100 complete control), read-out: Plant response rating, Pigweed; for pest or weed control at 125 g/ha: 125 g ai/ha
Summary of the method: as §1

[9] = tested on: foxtail, giant (giant foxtail, Setaria faberii); test: Test A postemergence, giant foxtail; settings: Setaria faberi, post-emergence, 240 h, postemergence, 0 to 100 scale, 0 is no effect, 100 is complete control, approximately 10 days, read-out: Plant response rating, Foxtail, Giant; for pest or weed control at 125 g/ha: 125 g ai/ha
Summary of the method: as §1

[10] = tested on: wheat (Triticum aestivum); test: Test A postemergence, wheat; settings: Triticum aestivum, post-emergence, 240 h, postemergence, 0 to 100 scale, 0 is no effect, 100 is complete control, approximately 10 days, read-out: Plant response rating, Wheat; for plant injury at 125 g/ha: 125 g ai/ha
Summary of the method: as §1

[11] = tested on: pigweed (Amaranthus retroflexus); test: Test A postemergence, pigweed; settings: Amaranthus retroflexus, post-emergence, 240 h, postemergence, 0 to 100 scale, 0 is no effect, 100 is complete control, approximately 10 days, read-out: Plant response rating, Pigweed; for pest or weed control at 125 g/ha: 125 g ai/ha
Summary of the method: as §1

[12] = tested on: rice (Oryza sativa); test: Test B flooded paddy test, rice; settings: Oryza sativa; 250 g ai/ha, Flood; visual rating after 13 to 15 days; scale 0 to 100, 0 is no effect, 100 is complete control; read-out: Plant response rating, Rice
Summary of the method: as §2

[13] = tested on: ryegrass, Italian (Italian ryegrass, Lolium multiflorum); test: Test A preemergence, Italian ryegrass; settings: Lolium multiflorum, pre-emergence, 240 h, Preemergence, 0 to 100 scale (0 no effect, 100 complete control), read-out: Plant response rating, Ryegrass, Italian; for pest or weed control at 125 g/ha: 125 g ai/ha
Summary of the method: as §1

[14] = tested on: kochia (Kochia scoparia); test: Test A preemergence, kochia; settings: Bassia scoparia, pre-emergence, 240 h, Preemergence, 0 to 100 scale (0 no effect, 100 complete control), read-out: Plant response rating, Kochia; for pest or weed control at 125 g/ha: 125 g ai/ha
Summary of the method: as §1

Row | Structure (SMILES) | pest or weed control at 125 g/ha [1] [%] | pest or weed control at 125 g/ha [2] [%] | pest or weed control at 250 g/ha [3] [%] | pest or weed control at 125 g/ha [4] [%] | pest or weed control at 250 g/ha [5] [%] | pest or weed control at 125 g/ha [6] [%] | pest or weed control at 125 g/ha [7] [%] | pest or weed control at 125 g/ha [8] [%] | pest or weed control at 125 g/ha [9] [%] | plant injury at 125 g/ha [10] [%] | pest or weed control at 125 g/ha [11] [%] | plant injury at 250 g/ha [12] [%] | pest or weed control at 125 g/ha [13] [%] | pest or weed control at 125 g/ha [14] [%] | also measured
1 | CCCCOc1c(C#N)cccc1Oc1ncc(Cl)cn1 [Compound 35, 2-butoxy-3-[(5-chloro-2-pyrimidinyl)oxy]benzonitrile] | 40 | 100 | 70 | 100 | 30 | 90 | 70 | 100 | 90 | 10 | 90 | 0 | 30 | 100 | pest or weed control at 500 g/ha ([1]; 500 g ai/ha): 80%; pest or weed control at 500 g/ha ([2]; 500 g ai/ha): 100%; pest or weed control at 500 g/ha ([4]; 500 g ai/ha): 100%; pest or weed control at 500 g/ha ([6]; 500 g ai/ha): 100%; pest or weed control at 500 g/ha ([7]; 500 g ai/ha): 90%; pest or weed control at 500 g/ha ([8]; 500 g ai/ha): 100%; pest or weed control at 500 g/ha ([9]; 500 g ai/ha): 90%; plant injury at 500 g/ha ([10]; 500 g ai/ha): 40%; pest or weed control at 500 g/ha ([11]; 500 g ai/ha): 100%; pest or weed control at 500 g/ha ([13]; 500 g ai/ha): 90%; pest or weed control at 500 g/ha ([14]; 500 g ai/ha): 100%
2 | FC(F)(F)COc1c(Cl)cccc1Oc1ncc(Cl)cn1 [Compound 42] | 0 | 10 | 60 | 10 | 0 | 20 | 10 | 60 | 10 | 0 | 60 | 0 | 0 | 10 | pest or weed control at 31 g/ha ([1]; 31 g ai/ha): 0%; pest or weed control at 31 g/ha ([2]; 31 g ai/ha): 0%; pest or weed control at 31 g/ha ([4]; 31 g ai/ha): 0%; pest or weed control at 31 g/ha ([6]; 31 g ai/ha): 0%; pest or weed control at 31 g/ha ([7]; 31 g ai/ha): 0%; pest or weed control at 31 g/ha ([8]; 31 g ai/ha): 0%; pest or weed control at 31 g/ha ([9]; 31 g ai/ha): 0%; plant injury at 31 g/ha ([10]; 31 g ai/ha): 0%; pest or weed control at 31 g/ha ([11]; 31 g ai/ha): 20%; pest or weed control at 31 g/ha ([13]; 31 g ai/ha): 0%; pest or weed control at 31 g/ha ([14]; 31 g ai/ha): 0%
